Measurements from ChEMBL document CHEMBL1201862, “PubChem BioAssay data set” (2004).
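A five-concentration, 48-hour dose response in 96-well plates underlies each endpoint, interpolated linearly between surrounding concentrations. GI50: concentration for 50% inhibition of growth.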 The source made the active and inactive calls. No stated cut-off is given here; in the data, active = GI50 up to about 1.1 µM and inactive = higher.

Key:
Test in all cases: NCI anticancer screen, dose series, 48 h
786-0 = system: 786-0
ACHN = system: ACHN
COLO 205 = system: COLO 205
EKVX = system: EKVX
HCT-15 = system: HCT-15
HT-29 = system: HT-29
IGROV-1 = system: IGROV-1
NCI-H226 = system: NCI-H226
NCI-H522 = system: NCI-H522
OVCAR-3 = system: OVCAR-3
OVCAR-8 = system: OVCAR-8
PC-3 = system: PC-3
RPMI-8226 = system: RPMI-8226
SF-268 = system: SF-268
SK-MEL-28 = system: SK-MEL-28
SK-OV-3 = system: SK-OV-3
SR = system: SR
SW-620 = system: SW-620
TK-10 = system: TK-10
HL-60 = system: HL-60

Compound | GI50 (786-0) | GI50 (ACHN) | GI50 (COLO 205) | GI50 (EKVX) | GI50 (HCT-15) [µM] | GI50 (HT-29) | GI50 (IGROV-1) | GI50 (NCI-H226) | GI50 (NCI-H522) | GI50 (OVCAR-3) | GI50 (OVCAR-8) | GI50 (PC-3) | GI50 (RPMI-8226) | GI50 (SF-268) | GI50 (SK-MEL-28) | GI50 (SK-OV-3) | GI50 (SR) | GI50 (SW-620) | GI50 (TK-10) | GI50 (HL-60)
C#Cc1nc(N)c2ncn(C3OC(COS(N)(=O)=O)C(O)C3O)c2n1 (stereo not given) | 0.0367 µM (active) | < 0.0146 µM (active) | 0.0277 µM (active) | 0.262 µM (active) | < 0.0214 | 0.0233 µM (active) | 0.0291 µM (active) | 0.0158 µM (active) | < 0.01 µM (active) | < 0.0194 µM (active) | 0.0188 µM (active) | < 0.0204 µM (active) | 0.0172 µM (active) | 0.018 µM (active) | 0.0374 µM (active) | < 0.01 µM (active) | < 0.01 µM (active) | < 0.0248 µM (active) | < 0.022 µM (active) | 
CN1CCN(Cc2nc3c(s2)CCc2sccc2-3)CC1 | 95.3 µM (inactive) | > 100 µM (inactive) | > 100 µM (inactive) | > 100 µM (inactive) | > 100 | 32.7 µM (inactive) | > 100 µM (inactive) | > 100 µM (inactive) | > 100 µM (inactive) | > 100 µM (inactive) | 94.6 µM (inactive) | 63.8 µM (inactive) | > 100 µM (inactive) | 82.6 µM (inactive) | 25.4 µM (inactive) | > 100 µM (inactive) | 36.1 µM (inactive) | > 100 µM (inactive) | 92.7 µM (inactive) | 
O=C1OCC(O)=C1C(c1ccc(Cl)cc1)c1cc2c(cc1O)OCO2 (stereo not given) | > 100 µM (inactive) | > 100 µM (inactive) | > 100 µM (inactive) | > 100 µM (inactive) | > 100 | > 100 µM (inactive) | > 100 µM (inactive) | > 100 µM (inactive) |  | > 100 µM (inactive) |  | > 100 µM (inactive) |  | > 100 µM (inactive) | > 100 µM (inactive) | > 100 µM (inactive) | > 100 µM (inactive) | > 100 µM (inactive) | > 100 µM (inactive) | > 100 µM (inactive)
CN(C(=O)c1ccc2c(c1)sc1c(=O)n(C)c3ccccc3c12)c1ccccc1 | 59.7 µM (inactive) | 33.7 µM (inactive) | > 100 µM (inactive) | > 100 µM (inactive) | > 100 | > 100 µM (inactive) | > 100 µM (inactive) | > 100 µM (inactive) | > 100 µM (inactive) | > 100 µM (inactive) | > 100 µM (inactive) | > 100 µM (inactive) |  |  | > 100 µM (inactive) | > 100 µM (inactive) | > 100 µM (inactive) | > 100 µM (inactive) | > 100 µM (inactive) | > 100 µM (inactive)
Cc1ccc(/N=N/c2c(O)c3ccccc3[nH]c2=O)c(S(=O)(=O)N(C)C)c1 | > 100 µM (inactive) | > 100 µM (inactive) | > 100 µM (inactive) | > 100 µM (inactive) | > 100 | > 100 µM (inactive) | > 100 µM (inactive) | > 100 µM (inactive) | > 100 µM (inactive) | > 100 µM (inactive) | > 100 µM (inactive) | > 100 µM (inactive) | > 100 µM (inactive) | > 100 µM (inactive) | > 100 µM (inactive) | > 100 µM (inactive) |  | > 100 µM (inactive) | > 100 µM (inactive) | > 100 µM (inactive)
C/C(=N/NC(=O)c1ccccc1Nc1ccccc1C(=O)N/N=C(\C)c1ccc(C)cc1)c1ccc(C)cc1 | > 100 µM (inactive) | 23.9 µM (inactive) | 83.6 µM (inactive) | > 100 µM (inactive) | 55 | > 100 µM (inactive) | > 100 µM (inactive) | > 100 µM (inactive) |  | 4.62 µM (inactive) | > 100 µM (inactive) | 41.7 µM (inactive) | > 100 µM (inactive) | > 100 µM (inactive) | > 100 µM (inactive) | > 100 µM (inactive) | > 100 µM (inactive) | > 100 µM (inactive) | 18.6 µM (inactive) | > 100 µM (inactive)
CC(=O)OC1COC(Nc2nc(NCc3ccccc3)n(C)c(=O)c2N=O)C(OC(C)=O)C1OC(C)=O (stereo not given) | > 10 µM (inactive) | > 10 µM (inactive) | > 10 µM (inactive) | > 10 µM (inactive) | > 10 | > 10 µM (inactive) | > 10 µM (inactive) | > 10 µM (inactive) | > 10 µM (inactive) | > 10 µM (inactive) | > 10 µM (inactive) | > 10 µM (inactive) | > 10 µM (inactive) | > 10 µM (inactive) | > 10 µM (inactive) | > 10 µM (inactive) |  | > 10 µM (inactive) | > 10 µM (inactive) | > 10 µM (inactive)
COCCN(CCOC)C(=O)COc1c2cc(C(C)(C)C)cc1Cc1cc(C(C)(C)C)cc(c1OCC(=O)N(CCOC)CCOC)Cc1cc(C(C)(C)C)cc(c1OCC(=O)N(CCOC)CCOC)Cc1cc(C(C)(C)C)cc(c1OCC(=O)N(CCOC)CCOC)Cc1cc(C(C)(C)C)cc(c1OCC(=O)N(CCOC)CCOC)C2 | 2.15 µM (inactive) | 0.817 µM (active) | 0.562 µM (active) | 0.434 µM (active) | 2.81 | 0.908 µM (active) | 1.18 µM (inactive) | 1.28 µM (inactive) | 0.655 µM (active) | 0.288 µM (active) | 1.39 µM (inactive) | 0.659 µM (active) |  | 1.93 µM (inactive) | 3.33 µM (inactive) | 3.05 µM (inactive) | 0.352 µM (active) | 0.877 µM (active) | 2.76 µM (inactive) | 1.25 µM (inactive)
c1ccc(N/N=C2\CC(c3ccccc3)Oc3ccccc32)cc1 (stereo not given) | 24.3 µM (inactive) | 43.5 µM (inactive) | 67.8 µM (inactive) | 21.9 µM (inactive) | 31 | 32.4 µM (inactive) | 22.6 µM (inactive) | > 100 µM (inactive) | 21.8 µM (inactive) | 34.5 µM (inactive) | 39.6 µM (inactive) | 47.1 µM (inactive) |  | 35.8 µM (inactive) | > 100 µM (inactive) | > 100 µM (inactive) | 42.1 µM (inactive) | 30.5 µM (inactive) | 74.1 µM (inactive) | 38.2 µM (inactive)
C=C=C(C)C(=O)N(C(C)C)C(C)C | > 100 µM (inactive) | > 100 µM (inactive) | > 100 µM (inactive) | > 100 µM (inactive) | > 100 | > 100 µM (inactive) | > 100 µM (inactive) | > 100 µM (inactive) |  | > 100 µM (inactive) | > 100 µM (inactive) | > 100 µM (inactive) | > 100 µM (inactive) | > 100 µM (inactive) | > 100 µM (inactive) | > 100 µM (inactive) | > 100 µM (inactive) | > 100 µM (inactive) | > 100 µM (inactive) | > 100 µM (inactive)
O=S(=O)(Nc1nccs1)c1ccc([As](=O)(O)O)cc1 | > 100 µM (inactive) | > 100 µM (inactive) | > 100 µM (inactive) | > 100 µM (inactive) | > 100 | > 100 µM (inactive) | > 100 µM (inactive) | > 100 µM (inactive) | > 100 µM (inactive) | > 100 µM (inactive) | > 100 µM (inactive) | > 100 µM (inactive) | > 100 µM (inactive) | > 100 µM (inactive) | > 100 µM (inactive) | > 100 µM (inactive) |  | > 100 µM (inactive) | > 100 µM (inactive) | > 100 µM (inactive)
O=[N+]([O-])c1ccccc1S(=O)(=O)N1CCCc2cc(Cl)ccc21 | > 85.1 µM (inactive) | > 51.6 µM (inactive) | 38.7 µM (inactive) | 77.4 µM (inactive) | 15.5 | 9.35 µM (inactive) | 39 µM (inactive) | > 100 µM (inactive) |  | 26.2 µM (inactive) | 88.9 µM (inactive) | 18 µM (inactive) | 9.02 µM (inactive) | > 68.1 µM (inactive) | 61 µM (inactive) | 26.9 µM (inactive) | 5.75 µM (inactive) | 17.1 µM (inactive) | > 100 µM (inactive) | 6.3 µM (inactive)
CC1C2CC(CC2(C)O)C1(C)C (stereo not given) | > 100 µM (inactive) | > 100 µM (inactive) | > 100 µM (inactive) | > 100 µM (inactive) |  | > 100 µM (inactive) | > 100 µM (inactive) | > 100 µM (inactive) | > 100 µM (inactive) | > 100 µM (inactive) | > 100 µM (inactive) | > 100 µM (inactive) |  | > 100 µM (inactive) | > 100 µM (inactive) | > 100 µM (inactive) | > 100 µM (inactive) | > 100 µM (inactive) | > 100 µM (inactive) | > 100 µM (inactive)
CC(=O)NC(C)(C)C1CCC(C)CC1 (stereo not given) | > 100 µM (inactive) | > 100 µM (inactive) | > 100 µM (inactive) | > 100 µM (inactive) | > 100 | > 100 µM (inactive) | > 100 µM (inactive) | > 100 µM (inactive) |  | > 100 µM (inactive) | > 100 µM (inactive) | > 100 µM (inactive) | > 100 µM (inactive) | > 100 µM (inactive) | > 100 µM (inactive) | > 100 µM (inactive) | > 100 µM (inactive) | > 100 µM (inactive) | > 100 µM (inactive) | > 100 µM (inactive)
OC1(c2ccc(Cl)cc2)C(N2CCCC2)c2ccccc2C2=NCCN21 (stereo not given) | 35.1 µM (inactive) | 30.3 µM (inactive) | 11.5 µM (inactive) | 26 µM (inactive) | 21.4 | 7.13 µM (inactive) | 16.1 µM (inactive) |  |  | 37.2 µM (inactive) | 23.9 µM (inactive) | 30 µM (inactive) | 13 µM (inactive) | 47.5 µM (inactive) | 13.9 µM (inactive) | 20.9 µM (inactive) | 15.1 µM (inactive) | 20.3 µM (inactive) | 14.6 µM (inactive) | 20.7 µM (inactive)
